The record followed here is patent US20150004100A1, “HETEROCYCLIC COMPOUNDS AS IMAGING PROBES OF TAU PATHOLOGY” (GE HEALTHCARE LIMITED, priority 2011, published 2015).

By fraction unbound is commonly meant free concentration divided by total concentration. Usually tissue uptake stands for the share of the injected amount in each gram of the tissue.

Molecules are shown by their SMILES.

The test system of one data set is rat liver microsomes. In words: Liver microsome stability assay, rat. It counts as in vitro ADME. To be noted: 1 μM, 37° C., parent compound remaining, criterion >50%. The method, then: (§1) The liver microsome stability assay provides an estimate of compound stability and rate of metabolism in vivo. The desirable criterion for this assay is >50% parent compound after 30 min.
(§2) A 1 μM compound solution was incubated with rat or human liver microsomes (20 mg/ml) at 37° C. and the amount of parent compound remaining following the incubation was determined after 5 and 30 min of incubation using LC-MS.
(Microsomes from liver hold many membrane-bound enzymes, among them those of drug oxidation.)

Data set [1] can be described thus: Protein binding assay, rat brain homogenates (rapid equilibrium dialysis). It counts as in vitro ADME. To be noted: rat brain homogenate, % bound, criterion <99%. As for the experimental part: (§3) The protein binding assays provide an estimate of free (unbound) fraction of the compound in the blood or brain in vivo. […] The desirable criterion for this assay is <99% of test compound bound.
(§4) Test compounds were first dissolved in DMSO to a concentration of 50 μM. This was followed by incubation in samples of human plasma and rat brain homogenates (final test concentration 1 μM). Binding of compounds to proteins was determined in the samples by rapid equilibrium dialysis after 5 and 30 min of incubation.
(In general: Equilibrium dialysis compares concentrations on both sides of a semipermeable membrane.)

Data set [2] can be described thus: Protein binding assay, human plasma (rapid equilibrium dialysis). In kind it is in vitro ADME. Particulars: % bound, criterion <99%. The method, then: as §3, §4
In data set [3] the test system is Aβ+ plaques. In words: Tissue binding assay (fluorescence), plaques in human AD tissue sections. To be noted: 100 μM, human AD tissue. Further details: key to Plaques (staining): −: No staining; +: weak staining; ++: moderate staining; +++: intense staining. As for the experimental part: (§5) Human brain tissue samples from the entorhinal cortex of patients with Alzheimer's disease (AD) and healthy controls were obtained from Tissue Solutions (Tissue Solutions Ltd, Glasgow, UK). Tissue samples were collected after informed written consent, and specimens were dissected at the tissue bank and snap-frozen for cryopreservation at a time interval of between 3 and 18 h after death. The frozen tissue was embedded in TissueTek® (VWR) and sectioned using a Microm HM560 cryostat (Thermo Scientific). Serial 12 μm sections were mounted onto SuperFrost®+ glass slides (VWR) and stored a −70° C.
(§6) The binding of compounds to tau+NFTs and Aβ+ plaques in human AD tissue were evaluated based on fluorescence.
(§7) Briefly, tissue sections were defrosted and fixed in ice-cold 70% ethanol. All tissue sections were rinsed with PBS after fixation and between all subsequent incubation steps. To quench autofluorescence, tissue sections were incubated first with 0.25% KMnO4 (Sigma-Aldrich) in PBS for 12 min, and then with 0.1% […]/0.1% oxalic acid (both reagents from Sigma-Aldrich) in PBS for 1 min. The tissue sections were blocked with 2% BSA in PBS for 10 min, and then incubated with the test compounds at 100 μM concentration for 1 h at RT. […] Finally the tissue sections were rinsed in PBS, and mounted in SlowFade® mounting media (Invitrogen). Images of labelled tissue sections were captured using a Nikon digital camera connected to a Leica microscope and using the NIS Elements D software (Nikon). Images were further processed with the Photoshop® software (Adobe).

The next data set has as its system human liver microsomes. The experiment in a line: Liver microsome stability assay, human. Particulars: 1 μM, 37° C., parent compound remaining, criterion >50%. It counts as in vitro ADME. As for the experimental part: as §1, §2
Data set [4] in a line: PAMPA (parallel artificial membrane permeability assay). To be noted: 10 μM, 5 h at RT; criterion >−6. In kind it is in vitro ADME. The method, then: The PAMPA assay is used to determine how well a compound crosses a cell membrane by measuring its passage through a phosphotidyl choline barrier. A permeability coefficient >−6 indicates high permeability across lipid membranes and is indicative of a compounds ability to cross the blood brain barrier.
A 10 μM solution was incubated on a PDVF membrane coated with a 2% phoshotidyl choline solution for 5 h at RT. Membrane penetration was measured using LC-MS.

For the next data set, the system named is tau+ NFTs. The experiment in a line: Tissue binding assay (fluorescence), NFTs in human AD tissue sections. Also noted: key to NFTs (staining): −: No staining; +: weak staining; ++: moderate staining; +++: intense staining. To be noted: 100 μM, human AD tissue. As for the experimental part: as §5, §6, §7
In data set [5] the test system is Aβ+ plaques. In words: Tissue binding assay (fluorescence), plaques in human AD tissue sections. Further details: key to Plaques (staining): −: No staining; +: weak staining; ++: moderate staining; +++: intense staining. To be noted: Table 2, human AD tissue.
Data set [6] in a line: In vivo cold bio-distribution in rat (brain uptake, LC-MS). The method, then:
All animal studies were in compliance with local rules and regulations. Test compounds were administered by intravenous (i.v) injection through the tail vein of naïve male Wistar rats (50 μg test compound/rat). The animals were sacrificed by dislocation of the neck at 2, 10, 30, 60 min post-injection (p.i). The brain and plasma were collected from each animal. The concentration of test compound was measured in the plasma and brain homogenates using LS-MS, and calculated as % compound/g (% ID/g).

As for `COc1ccc(-n2nc(C(=O)N3CCC(CF)CC3)c3csc(N)c3c2=O)cc1.Cl` [Compound 81], the “Liver stability Rat (% PCP) 5 min” value in the data set with rat liver microsomes (5 min) is on record as 60.12 % PCP. Further, the “Liver stability Rat (% PCP) 30 min” value with rat liver microsomes (30 min) was 32.54 % PCP. In addition, the fraction unbound at 1 μM in [1] was 0.589; in data set [2] it was 0.0498. Besides, in the data set with Aβ+ plaques [3] (Table 3), the “Plaques (staining)” value is reported as “−”. Besides, the “Liver stability Human (% PCP) 5 min” value in the data set with human liver microsomes (5 min) came to 91.63 % PCP. Also, the “Liver stability Human (% PCP) 30 min” value with human liver microsomes (30 min) is reported as 73.10 % PCP. For the same compound, in data set [4], the “PAMPA Log Pe” value was −5.12.
Take `CC(C)NC(=O)c1nn(-c2ccc(OCC(O)CF)cc2)c(=O)c2c(N)scc12` (stereo not shown) [Compound 59]: the “NFTs (staining)” value with tau+ NFTs (Table 4) is recorded as “−”. The “Plaques (staining)” value in the data set with Aβ+ plaques [3] (Table 4) is “−”.
Turning to `COc1ccc(-n2nc(C(=O)NC(C)C)c3csc(N(C)C)c3c2=O)cc1` [Compound 82], the figures for the “Plaques (staining)” value in the data set on Aβ+ plaques [5] (1 μM), with Aβ+ plaques [5] (10 μM) and with Aβ+ plaques [3] (Table 2) were “−”, “−” and “++”, respectively. In addition, the “NFTs (staining)” value in the data set with tau+ NFTs (Table 2) is recorded as “+”.
In the case of `CC(C)NC(=O)c1nn(-c2ccc(OCCCF)cc2)c(=O)c2c(N)scc12` [Compound 61], in the data set with tau+ NFTs (Table 4), the “NFTs (staining)” value is “−”. The “Plaques (staining)” value with Aβ+ plaques [3] (Table 4) is given as “−”.
Regarding `CNc1scc2c(C(=O)NC(C)C)nn(-c3ccc(OC)cc3)c(=O)c12` [Compound 87], the “NFTs (staining)” value with tau+ NFTs (Table 3) is given as “−”. Further, the “Plaques (staining)” value in the data set on Aβ+ plaques [3] (Table 3) is recorded as “−”.
`COc1ccc(-n2nc(NCCF)c3csc(N)c3c2=O)cc1` [Compound 99]: in data set [6] (male, Wistar, rat, brain, iv, 50 μg/rat, 2 min p.i.), the tissue uptake at 2 min was above 0.2 %ID/g. In [6] (male, Wistar, rat, brain, iv, 50 μg/rat, 10 min p.i.), this compound displayed a tissue uptake at 10 min of 0.092 %ID/g. This compound also returned a tissue uptake at 30 min in [6] (male, Wistar, rat, brain, iv, 50 μg/rat, 30 min p.i.) of 0.013 %ID/g. Moreover, in data set [6] (male, Wistar, rat, brain, iv, 50 μg/rat, 60 min p.i.), the tissue uptake at 60 min was 0.001 %ID/g. In addition, in data set [6] (rat brain, 2 min vs 30 min p.i.), the “Clearance ratio 2:30 min” value amounted to 23.8. Besides, the “Brain uptake and clearance (in words)” value in data set [6] (rat, from clearance ratio) is on record as “rapid brain uptake followed by rapid clearance”. Besides, the “Brain uptake % ID/g p.i” value in data set [6] (rat, i.v., 2 min p.i.) is 0.31 % ID/g.
On to `CC(C)(C)OC(=O)c1nn(-c2ccc(OCCF)cc2)c(=O)c2c(N)scc12` [Compound 104], for which, in the data set on tau+ NFTs (Table 4), the “NFTs (staining)” value is listed as “−”. Moreover, the “Plaques (staining)” value in the data set on Aβ+ plaques [3] (Table 4) is “−”.
Take `COc1ccc(-n2nc(C(=O)N3CC[C@H](F)C3)c3csc(N)c3c2=O)cc1` [Compound 108]: the “NFTs (staining)” value in the data set on tau+ NFTs (Table 3) is “−”. The “Plaques (staining)” value in the data set with Aβ+ plaques [3] (Table 3) is listed as “−”.
`COc1ccc(-n2nc(C(=O)N3CCN(c4ccc(F)nc4)CC3)c3csc(N)c3c2=O)cc1` [Compound 67]: the “NFTs (staining)” value in the data set with tau+ NFTs (Table 3) is “−”. The “Plaques (staining)” value with Aβ+ plaques [3] (Table 3) is “−”.
